Measurements published in patent US20220073536A1 (Rigel Pharmaceuticals, Inc., priority 2003, published 2022).
Counter-ions that a name gives are not always drawn. Like-named read-outs stand apart in the source and are kept apart here. One block for each molecule: values may come before it.

System: cultured human mast cells (CHMC)
Test: CHMC low cell density IgE activation: tryptase assay
Format: cell-based
Details: IgE activation
Outline: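 Low-density CHMC, 1000-1500 cells/well in MT; 1 hr 37 °C; anti-IgE challenge 30 min 37 °C; supernatant tryptase via fluorogenic substrate, 30 min RT.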

[1] = Homo sapiens, Mast cell, low cell density, 8 pt, read-out: LD Tryptase, CHMC, IgE, 8 pt
[2] = Homo sapiens, Mast cell, low cell density CHMC, tryptase, 3 pt, read-out: LD Tryptase, CHMC, IgE, 3 pt
[3] = low cell density, 8 pt, read-out: LD Tryptase, CHMC, IgE, 8 pt
[4] = Homo sapiens, Mast cell, low cell density, 3 pt, read-out: LD Tryptase, CHMC, IgE, 3 pt
[5] = Homo sapiens, Mast cell, low cell density CHMC, tryptase release, 8 pt, read-out: LD Tryptase, CHMC, IgE, 8 pt
[6] = low cell density CHMC, tryptase, 3 pt, read-out: LD Tryptase, CHMC, IgE, 3 pt
[7] = low cell density CHMC, tryptase, 8 pt, read-out: LD Tryptase, CHMC, IgE, 8 pt
[8] = Homo sapiens, Mast cell, low cell density CHMC, tryptase, 8 pt, read-out: LD Tryptase, CHMC, IgE, 8 pt
[9] = low cell density CHMC, tryptase readout, 8 pt, read-out: LD Tryptase, CHMC, IgE, 8 pt
[10] = Homo sapiens, Mast cell, low cell density CHMC, tryptase release, 3 pt, read-out: LD Tryptase, CHMC, IgE, 3 pt

- IC50 [1]: < 10 µM
Molecule: Cc1nc2cc(Nc3ncc(F)c(Nc4ccc5c(c4)NC(=O)[C@H](C)O5)n3)ccc2n1CCO [Compound 902]

- IC50 [1]: < 10 µM
Molecule: Cc1nc2cc(Nc3ncc(F)c(Nc4ccc5c(c4)NC(=O)C(C)(C)O5)n3)ccc2n1CCCNS(C)(=O)=O [Compound 963]

- IC50 [2]: > 10 µM
Molecule: CC(C)Nc1nc(Nc2cccc(N3CCN(C)CC3)c2)ncc1F [Compound 1214]

- IC50 [3]: < 10 µM
Molecule: CC1(C)Oc2ccc(Nc3nc(Nc4ccc5oncc5c4)ncc3F)nc2NC1=O [Compound 928, N2-(1,2-Benzisoxazol-5-yl)-N4-(2,2-dimethyl-3-oxo-4H-5-pyrido[1,4]oxazin-6-yl)-5-fluoro-2,4-pyrimidinediamine]

- IC50 [4]: < 10 µM
- IC50 [1]: < 10 µM
Molecule: Cc1cc(C)cc(Nc2nc(Nc3cc(Cl)c(O)c(Cl)c3)ncc2F)c1 [Compound 559]

- IC50 [5]: < 10 µM
Molecule: CC1(C)C(=O)Nc2cc(Nc3nc(Nc4ccc5[nH]ncc5c4)ncc3F)ccc2S1(=O)=O [Compound 274]

- IC50 [2]: < 10 µM
Molecule: COc1cc(Nc2nc(Nc3cc(Cl)cc(Cl)c3)ncc2F)cc(OC)c1 [Compound 352]

Molecule: (R)-N2-[3- (N-tert-Butoxycarbonylamino)methylenephenyl]-5-fluoro-N4- (2-methyl-3-oxo-2H,4H-benz[1,4]oxazin-6-yl) [Compound 1277]
- IC50 [6]: < 10 µM
- IC50 [7]: < 10 µM

- IC50 [8]: > 10 µM
Molecule: CN1CCN(c2ccc(Nc3ncc(F)c(NC4CCC4)n3)cc2CO)CC1 [Compound 1235]

- IC50 [6]: < 10 µM
Molecule: COc1cc(Nc2nc(Nc3ccc4cnn(CC5CCC5)c4c3)ncc2F)ccc1F [Compound 733, N2-[1-(Cyclobuylmethyl)indazol-6-yl)-5-fluoro-N4-(4-fluoro-3-methoxyphenyl)-2,4-pyrimidinediamine]

- IC50 [4]: < 10 µM
- IC50 [1]: < 10 µM
Molecule: COc1ccc(Nc2nc(Nc3cc(C)cc(C)c3)ncc2F)nc1Cl [Compound 879, N4-(2-Chloro-3-methoxypyrid-6-yl)-N2-(3,5-dimethylphenyl)-5-fluoro-2,4-pyrimidinediamine]

- IC50 (low cell density, 3 pt, read-out: LD Tryptase, CHMC, IgE, 3 pt): < 10 µM
- IC50 [3]: < 10 µM
Molecule: Cn1c(=O)[nH]c2cc(Nc3ncc(F)c(Nc4ccc5c(n4)NC(=O)C(C)(C)O5)n3)ccc21 [Compound 908, N4-(2,2-Dimethyl-3-oxo-4H-5-pyrid[1,4]oxazin-6-yl)-N2-(2,3-dihydro-1-methyl-2-oxo-benzimidazol-5-yl)-5-fluoro-2,4-pyrimidinediamine]

- IC50 [2]: < 10 µM
Molecule: COc1ccc(Nc2ncc(F)c(Nc3ccc4c(c3)NC(=O)C(C)(C)O4)n2)c(OC)c1OC [Compound 672]

- IC50 [5]: < 10 µM
Molecule: CC(=O)NCCCn1ncc2cc(Nc3ncc(F)c(Nc4ccc5c(c4)NC(=O)C(C)(C)O5)n3)ccc21 [Compound 821, N2-[1-[3-(N-Acetylamino)propyl]indazol-5-yl]-N4-(2,2-dimethyl-3-oxo-4H-benz[1,4]oxazin-6-yl)-5-fluoro-2,4-pyrimidinediamine]

- IC50 [7]: < 10 µM
Molecule: 5-Fluoro-N2- (3-hydroxyphenyl)-N4- (4-[N-[methoxycarbonylmethylene]aminocarbonyl]phenyl)-2,4-pyrimidinediamine [Compound 1328]

- IC50 [6]: < 10 µM
Molecule: Cc1cc(C)cc(Nc2ncc(F)c(NCC3COc4ccccc4O3)n2)c1 (stereo not shown) [Compound 1256, N4-[ (2,3-Dihydro-1,4-benzodioxan-2-yl)methyl]-N2-(3,5-dimethylphenyl)-5-fluoro-2,4-pyrimidinediamine]

- IC50 [2]: < 10 µM
Molecule: CCCCn1ncc2ccc(Nc3ncc(F)c(Nc4ccc(F)c(OC)c4)n3)cc21 [Compound 717, N2-(1-n-Butylindazol-6-yl)-5-fluoro-N4-(4-fluoro-3-methoxyphenyl)-2,4-pyrimidinediamine]

- IC50 [6]: < 10 µM
- IC50 [7]: < 10 µM
Molecule: 5-Fluoro-N2,N4-bis (4-[N-[methoxycarbonylmethylene]aminocarbonyl]phenyl)-2,4-pyrimidinediamine [Compound 1332]

- IC50 [1]: > 10 µM
Molecule: CNC(=O)c1cc2cccc(Nc3ncc(F)c(Nc4cc(C)cc(C)c4)n3)c2[nH]1 [Compound 557, N4-(3,5-Dimethylphenyl)-5-fluoro-N2-[2-(N-methylamino)carbonylindol-7-yl]-2,4-pyrimidinediamine]

- IC50 [9]: < 10 µM
Molecule: CCOC(=O)N1CCN(c2ccc(Nc3ncc(F)c(Nc4ccc5c(n4)NC(=O)CO5)n3)cc2)CC1 [Compound 1072, N2-[4-(4-Ethoxycarbonylpiperazino)phenyl]-5-fluoro-N4-(3-oxo-2H,4H-5-pyrid[1,4]oxazin-6-yl)-2,4-pyrimidinediamine]

- IC50 [8]: > 10 µM
Molecule: Nc1nc(Nc2nc(Nc3ccc(Cl)c(Cl)c3)ncc2F)n[nH]1 [Compound 1254]

- IC50 [4]: < 10 µM
Molecule: COc1ccc(Nc2nc(Nc3ccc4c(cnn4CCCNC(C)=O)c3)ncc2F)nc1Cl [Compound 890]

- IC50 [9]: < 10 µM
Molecule: CCOC(=O)N1CCN(c2ccc(Nc3ncc(F)c(Nc4ccc5c(n4)NC(=O)C(C)(C)O5)n3)cc2)CC1 [Compound 1077, N4-(2,2-Dimethyl-3-oxo-4H-5-pyrid [1,4]oxazin-6-yl)-N2-[4-(4-ethoxycarbonylpiperazino)phenyl]-5-fluoro-2,4-pyrimidinediamine]

- IC50 (low cell density CHMC, tryptase readout, 3 pt, read-out: LD Tryptase, CHMC, IgE, 3 pt): > 10 µM
- IC50 [9]: < 10 µM
Molecule: Cc1cc(C)cc(Nc2ncc(F)c(Nc3ccc4c(n3)NC(=O)[C@H](C)O4)n2)c1 [Compound 1084, (S)-N2-(3,5-Dimethylphenyl)-5-fluoro-N4-(2-methyl-3-oxo-2H,4H-5-pyrid[1,4]oxazin-6-yl)-2,4-pyrimidinediamine]

- IC50 [2]: > 10 µM
Molecule: Cc1cc(Nc2ncc(F)c(NC3CCC3)n2)cnc1N1CCN(C)CC1 [Compound 1239]

- IC50 [10]: < 10 µM
- IC50 [5]: < 10 µM
Molecule: COc1ccc(Nc2nc(Nc3ccc4c(cnn4CCCN4C(=O)CCCC4=O)c3)ncc2F)cc1Cl [Compound 858, N4-(3-Chloro-4-methoxyphenyl)-N2-[1-[3-(2,6-dioxopiperidino]propyl)indazol-5-yl]-5-fluoro-2,4-pyrimidinediamine]

- IC50 [4]: < 10 µM
Molecule: Cc1nc2cc(Nc3ncc(F)c(Nc4ccc(Cl)c(Cl)c4)n3)ccc2n1C [Compound 894]

- IC50 [3]: < 10 µM
Molecule: N4-[3,4- (Difluoromethylenedioxy)phenyl]-5-fluoro-N2- (3,4,5-trimethoxyphenyl)-2,4-pyrimidinediamine [Compound 561]

- IC50 [5]: < 10 µM
Molecule: CC(C)n1ncc2ccc(Nc3ncc(F)c(Nc4ccc(Cl)c(Cl)c4)n3)cc21 [Compound 784, N4-(3,4-Dichlorophenyl)-5-fluoro-N2-[1-(1-methylethyl)indazol-6-yl]-2,4-pyrimidinediamine]

- IC50 [5]: < 10 µM
Molecule: COc1cc(Nc2ncc(F)c(Nc3ccc4c(c3)NC(=O)C(C)S4)n2)cc(OC)c1 (stereo not shown) [Compound 270]

- IC50 [4]: < 10 µM
- IC50 [1]: < 10 µM
Molecule: Cc1nc2cc(Nc3ncc(F)c(Nc4ccc5c(n4)NC(=O)C(C)(C)O5)n3)ccc2n1C [Compound 898, N2-(1,2-Dimethylbenzimidazol-5-yl)-N4-(2,2-dimethyl-3-oxo-4H-5-pyrid[1,4]oxazin-6-yl)-5-Fluoro-2,4-pyrimidinediamine]

- IC50 [5]: < 10 µM
Molecule: C[C@@H]1Oc2ccc(Nc3nc(Nc4ccc5c(cnn5CCCNS(=O)(=O)C(F)(F)F)c4)ncc3F)cc2NC1=O [Compound 843, (S)-5-Fluoro-N4-(2-methyl-3-oxo-2H,4H-benz[1,4]oxazin-6-yl)-N2-[1-[3-(N-trifluoromethylsulfonylamino)propyl]indazol-5-yl]-2,4-pyrimidinediamine]

- IC50 [2]: < 10 µM
Molecule: CN1CCN(c2ccc(Nc3ncc(F)c(NC4CCCC4)n3)cc2Cl)CC1 [Compound 1195, N2-[3-Chloro-4-(4-methylpiperazino)phenyl]-N4-cyclopentyl-5-fluoro-2,4-pyrimidinediamine]

- IC50 [4]: < 10 µM
Molecule: Cc1cc(Nc2nc(Nc3cccc(-c4ncco4)c3)ncc2F)no1 [Compound 524, 5-Fluoro-N4-(5-methylisoxazol-3-yl)-N2-[3-(oxazol-2-yl)phenyl]-2,4-pyrimidinediamine]

- IC50 [10]: < 10 µM
- IC50 [5]: < 10 µM
Molecule: COc1ccc(Nc2ncc(F)c(Nc3ccc4c(c3)NC(=O)C(C)S4(=O)=O)n2)cc1F (racemic) [Compound 296]

- IC50 [6]: < 10 µM
Molecule: CN1CCN(c2ccc(Nc3ncc(F)c(NC4CCC4)n3)cc2CO)CC1 [Compound 1243, N4-Cyclobutyl-5-fluoro-N2-[3-hydroxymethyl-4-(4-methylpiperazino)phenyl]-2,4-pyrimidinediamine Bishydrogen chloride salt]

- IC50 [2]: < 10 µM
- IC50 [8]: < 10 µM
Molecule: CCCCn1ncc2cc(Nc3ncc(F)c(Nc4ccc(F)c(OC)c4)n3)ccc21 [Compound 713, N2-(1-n-Butylindazol-5-yl)-5-fluoro-N4-(4-fluoro-3-methoxyphenyl)-2,4-pyrimidinediamine]

- IC50 [8]: > 10 µM
Molecule: COc1ccc(Nc2ncc(F)c(Nc3n[nH]c(N)n3)n2)cc1Cl [Compound 1253]

- IC50 [2]: < 10 µM
- IC50 [8]: < 10 µM
Molecule: COc1ccc(Nc2nc(Nc3ccc(C(N)=O)c(Cl)c3)ncc2F)cc1Cl [Compound 1353]

- IC50 [6]: < 10 µM
- IC50 [7]: < 10 µM
Molecule: COC(=O)CNC(=O)c1ccc(Nc2ncc(F)c(Nc3ccc(OCc4nc(C)no4)cc3)n2)cc1 [Compound 1342, 5-Fluoro-N2-(4-[N-[methoxycarbonylmethylene]aminocarbonyl]phenyl)-N4-(4-[3-methyl-1,2,4-oxadiazol-5-yl]methyleneoxyphenyl)-2,4-pyrimidinediamine]
